Measurements from ChEMBL document CHEMBL1135456, “Inhibition of MIF bioactivity by rational design of pharmacological inhibitors of MIF tautomerase activity” (J Med Chem, 2002).

Target: T1, Macrophage migration inhibitory factor (Homo sapiens, UniProt P14174)
T1 sequence (P14174 whole entry): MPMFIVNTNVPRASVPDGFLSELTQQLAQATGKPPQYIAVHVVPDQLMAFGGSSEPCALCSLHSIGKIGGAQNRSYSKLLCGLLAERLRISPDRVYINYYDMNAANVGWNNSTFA
Assay: Inhibition of human macrophage migration inhibitory factor tautomerase (MIF) activity

IC50 [µM]	Structure (SMILES)
100	COC(=O)[C@H](CCSC)/N=C/c1ccc(O)cc1
50	COC(=O)[C@@H](Cc1ccccc1)/N=C/c1ccc(O)cc1
70	CC[C@H](/N=C/c1ccc(O)cc1)C(=O)OC
> 100	COC(=O)[C@H](C)/N=C/c1ccc(O)cc1

Further lines, the compound ahead of its results:

Structure (SMILES)	IC50 [µM]
COC(=O)[C@@H](Cc1ccc(O)cc1)/N=C/c1ccc(O)cc1	10
COC(=O)[C@H](CO)/N=C/c1ccc(O)cc1	100
COC(=O)[C@H](CC(C)C)/N=C/c1ccc(O)cc1	> 100
